In PubChem BioAssay (NCI):
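These data come from cells grown in 96-well plates and exposed to compound for 48 hours at five concentrations. TGI marks complete inhibition of growth.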

What was measured:
Assay in all cases: growth of human tumour cells (NCI), 48 h
[1] = tested on: 786-0 renal
[2] = tested on: A498 renal
[3] = tested on: A549 NSCLC
[4] = tested on: ACHN renal
[5] = tested on: BT-549 breast
[6] = tested on: CAKI-1 renal
[7] = tested on: CCRF-CEM leukemia
[8] = tested on: COLO 205 colon
[9] = tested on: DU-145 prostate
[10] = tested on: EKVX NSCLC
[11] = tested on: HCC-2998 colon
[12] = tested on: HCT-116 colon
[13] = tested on: HCT-15 colon
[14] = tested on: HOP-62 NSCLC
[15] = tested on: HS 578T breast
[16] = tested on: HT29 colon
[17] = tested on: IGROV1 ovarian
[18] = tested on: K-562 leukemia
[19] = tested on: KM12 colon
[20] = tested on: LOX IMVI melanoma
[21] = tested on: M14 melanoma
[22] = tested on: MALME-3M melanoma
[23] = tested on: MCF7 breast
[24] = tested on: MDA-MB-231 breast
[25] = tested on: MDA-MB-435
[26] = tested on: MDA-N
[27] = tested on: MOLT-4 leukemia
[28] = tested on: NCI-H226 lung
[29] = tested on: NCI-H23 lung
[30] = tested on: NCI-H460 lung
[31] = tested on: NCI-H522 lung
[32] = tested on: NCI/ADR-RES ovarian
[33] = tested on: OVCAR-3 ovarian
[34] = tested on: OVCAR-4 ovarian
[35] = tested on: OVCAR-5 ovarian
[36] = tested on: OVCAR-8 ovarian
[37] = tested on: PC-3 prostate
[38] = tested on: RPMI-8226 leukemia
[39] = tested on: RXF 393 renal
[40] = tested on: SF-268 CNS
[41] = tested on: SF-295 CNS
[42] = tested on: SF-539 CNS
[43] = tested on: SK-MEL-2 melanoma
[44] = tested on: SK-MEL-28 melanoma
[45] = tested on: SK-MEL-5 melanoma
[46] = tested on: SK-OV-3 ovarian
[47] = tested on: SN12C renal
[48] = tested on: SNB-19 CNS
[49] = tested on: SNB-75 CNS
[50] = tested on: SW-620 colon
[51] = tested on: T-47D breast
[52] = tested on: TK-10 renal
[53] = tested on: U251 CNS
[54] = tested on: UACC-257 melanoma
[55] = tested on: UACC-62 melanoma
[56] = tested on: UO-31 renal
[57] = tested on: HL-60(TB) leukemia
[58] = tested on: HOP-92 NSCLC
[59] = tested on: SR leukemia

## CCOC(=O)C(CCSC)(CCSC)C(=O)OCC
[1]
  TGI: > 100 µM
[2]
  TGI: > 100 µM
[3]
  TGI: > 100 µM
[4]
  TGI: > 100 µM
[5]
  TGI: > 100 µM
[6]
  TGI: > 100 µM
[7]
  TGI: > 100 µM
[8]
  TGI: > 100 µM
[9]
  TGI: > 100 µM
[10]
  TGI: > 100 µM
[11]
  TGI: > 100 µM
[12]
  TGI: > 100 µM
[13]
  TGI: > 100 µM
[14]
  TGI: > 100 µM
[15]
  TGI: > 100 µM
[16]
  TGI: > 100 µM
[17]
  TGI: > 100 µM
[18]
  TGI: > 100 µM
[19]
  TGI: > 100 µM
[20]
  TGI: > 100 µM
[21]
  TGI: > 100 µM
[22]
  TGI: > 100 µM
[23]
  TGI: > 100 µM
[24]
  TGI: > 100 µM
[25]
  TGI: > 100 µM
[26]
  TGI: > 100 µM
[27]
  TGI: > 100 µM
[28]
  TGI: > 100 µM
[29]
  TGI: > 100 µM
[30]
  TGI: > 100 µM
[31]
  TGI: > 100 µM
[32]
  TGI: > 100 µM
[33]
  TGI: > 100 µM
[34]
  TGI: > 100 µM
[35]
  TGI: > 100 µM
[36]
  TGI: > 100 µM
[37]
  TGI: > 100 µM
[38]
  TGI: > 100 µM
[39]
  TGI: > 100 µM
[40]
  TGI: > 100 µM
[41]
  TGI: > 100 µM
[42]
  TGI: > 100 µM
[43]
  TGI: > 100 µM
[44]
  TGI: > 100 µM
[45]
  TGI: > 100 µM
[46]
  TGI: 72.2 µM
[47]
  TGI: > 100 µM
[48]
  TGI: > 100 µM
[49]
  TGI: > 100 µM
[50]
  TGI: > 100 µM
[51]
  TGI: > 100 µM
[52]
  TGI: > 100 µM
[53]
  TGI: > 100 µM
[54]
  TGI: > 100 µM
[55]
  TGI: 49.1 µM
[56]
  TGI: > 100 µM

## CCCCCCc1cc2cc(-c3cn4ccccc4n3)c(=O)oc2cc1O
[1]
  TGI: 4.76 µM
[2]
  TGI: 50.7 µM
[3]
  TGI: 31.2 µM
[4]
  TGI: 38.1 µM
[5]
  TGI: 22.1 µM
[6]
  TGI: 13.5 µM
[7]
  TGI: > 100 µM
[8]
  TGI: > 100 µM
[9]
  TGI: 19.3 µM
[10]
  TGI: 45.4 µM
[11]
  TGI: 47.2 µM
[12]
  TGI: 16.9 µM
[13]
  TGI: 20.9 µM
[57]
  TGI: > 100 µM
[14]
  TGI: 24.4 µM
[58]
  TGI: 32.6 µM
[16]
  TGI: > 100 µM
[17]
  TGI: 27.7 µM
[18]
  TGI: > 40.3 µM
[19]
  TGI: > 67.9 µM
[20]
  TGI: > 36.9 µM
[21]
  TGI: 16.1 µM
[22]
  TGI: 4.74 µM
[23]
  TGI: 17.5 µM
[24]
  TGI: 9.7 µM
[25]
  TGI: 20.6 µM
[26]
  TGI: 18.9 µM
[27]
  TGI: > 63.3 µM
[28]
  TGI: 34.5 µM
[29]
  TGI: 17 µM
[30]
  TGI: 36.1 µM
[31]
  TGI: 15.1 µM
[32]
  TGI: 21.4 µM
[33]
  TGI: 15.7 µM
[34]
  TGI: 17.5 µM
[35]
  TGI: 51.7 µM
[36]
  TGI: 28.5 µM
[37]
  TGI: 32.7 µM
[38]
  TGI: 18.4 µM
[39]
  TGI: 15.1 µM
[40]
  TGI: 6.94 µM
[41]
  TGI: 34.1 µM
[42]
  TGI: 7.19 µM
[43]
  TGI: 28.5 µM
[44]
  TGI: 24.7 µM
[45]
  TGI: 22.1 µM
[46]
  TGI: 26.5 µM
[47]
  TGI: 17.5 µM
[48]
  TGI: 26 µM
[49]
  TGI: 8.81 µM
[59]
  TGI: 18.8 µM
[50]
  TGI: > 53.6 µM
[51]
  TGI: 52 µM
[52]
  TGI: 30.1 µM
[53]
  TGI: 10.2 µM
[54]
  TGI: 50.9 µM
[55]
  TGI: 20.6 µM
[56]
  TGI: 20.7 µM
